The source of these data is ChEMBL document CHEMBL5518188, “Discovery of 4-amino-1,6-dihydro-7H-pyrrolo[2,3-d]pyridazin-7-one derivatives as potential receptor-interacting serine/threonine-protein kinase 1 (RIPK1) inhibitors” (Eur J Med Chem, 2024).

Data set [1] deals with T1, Receptor-interacting serine/threonine-protein kinase 1 (Homo sapiens, UniProt Q13546).
T1 sequence (Q13546 whole entry): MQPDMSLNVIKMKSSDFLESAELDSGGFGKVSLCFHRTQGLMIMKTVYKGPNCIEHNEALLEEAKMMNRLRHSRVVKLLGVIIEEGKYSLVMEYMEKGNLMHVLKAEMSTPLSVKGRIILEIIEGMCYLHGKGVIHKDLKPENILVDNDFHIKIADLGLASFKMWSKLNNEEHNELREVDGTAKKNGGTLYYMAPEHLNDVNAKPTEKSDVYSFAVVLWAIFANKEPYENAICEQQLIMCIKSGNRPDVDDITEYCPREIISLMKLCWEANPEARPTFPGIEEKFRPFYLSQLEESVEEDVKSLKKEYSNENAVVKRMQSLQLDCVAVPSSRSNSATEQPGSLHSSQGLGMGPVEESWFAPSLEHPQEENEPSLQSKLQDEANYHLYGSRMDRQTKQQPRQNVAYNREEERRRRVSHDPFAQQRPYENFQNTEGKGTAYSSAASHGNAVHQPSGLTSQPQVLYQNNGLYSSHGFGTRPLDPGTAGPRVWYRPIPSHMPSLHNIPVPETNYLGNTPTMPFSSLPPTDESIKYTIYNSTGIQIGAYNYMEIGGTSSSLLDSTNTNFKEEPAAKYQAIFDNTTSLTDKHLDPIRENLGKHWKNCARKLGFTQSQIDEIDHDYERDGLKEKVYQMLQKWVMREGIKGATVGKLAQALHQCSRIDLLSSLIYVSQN
Briefly: Inhibition of RIPK1 (unknown origin) in presence of ATP by kinaseProfiler assay.

The test system of data set [2] is HT-29. Nature of the data set: Anti-necroptosis activity against TSZ-induced human HT-29 cells. Type of data set: functional, cell-based.
Data set [3] deals with U-937. Nature of the data set: Anti-necroptosis activity against TSZ-induced human U-937 cells. The data set is classed as functional, cell-based.
Data set [4] has as its system L929. Nature of the data set: Anti-necroptosis activity against TSZ-induced mouse L929 cells. Type of data set: functional, cell-based.
A short description of data set [5]: Metabolic stability in cryopreserved human liver microsome assessed as half life. Type of data set: ADME. To be noted: cryopreserved liver microsomes.

As to `CC(C)(C)c1ccc(Cn2nc(-c3ccc4c(c3)CCN4C(=O)Cc3cccc(OC(F)(F)F)c3)c3c(N)n[nH]c(=O)c32)cc1`, the half-maximal inhibitory concentration (IC50) in data set [1] is above 1000 nM. The EC50 in data set [2] was above 1000 nM; in data set [3], above 1000 nM; in data set [4] it was 659 nM.
On to `Nc1n[nH]c(=O)c2c1c(-c1ccc3c(c1)CCN3C(=O)Cc1cccc(OC(F)(F)F)c1)nn2CCC1CC1`, for which the IC50 in data set [1] stood at 70.3 nM. Moreover, the EC50 in data set [2] worked out at 18.2 nM; in data set [3] it was 4.04 nM; in data set [4], 3.67 nM.
As to `CC(C)Cn1cc(-c2ccc3c(c2)CCN3C(=O)Cc2cccc(OC(F)(F)F)c2)c2c(N)n[nH]c(=O)c21`, the IC50 in data set [1] was 44.7 nM. Besides, the values for the EC50 in data set [2], in data set [3] and in data set [4] were 1.61 nM, 1.84 nM and 8.8 nM, respectively. Also, the half-life in data set [5] was 19.6 min.
`CCn1nc(-c2ccc3c(c2)CCN3C(=O)Cc2cccc(C(F)(F)F)c2)c2c(N)n[nH]c(=O)c21`: in data set [1], the IC50 was determined as 135 nM. The EC50 turned out to be 11.3 nM in data set [2], 1.38 nM in data set [3] and 1.75 nM in data set [4].
Consider `CCn1nc(-c2ccc3c(c2)CCN3C(=O)Cc2ccccc2)c2c(N)n[nH]c(=O)c21`, for which, in data set [1], the IC50 is above 1000 nM. The results for the EC50 in data set [2], in data set [3] and in data set [4] were 546 nM, 1020 nM and 142 nM, respectively.
As for `CC(C)=CCn1nc(-c2ccc3c(c2)CCN3C(=O)Cc2cccc(OC(F)(F)F)c2)c2c(N)n[nH]c(=O)c21`, in data set [1], the IC50 is 64.3 nM. In addition, the EC50 in data set [2] worked out at 11.3 nM; in data set [3] it was 22.7 nM; in data set [4], 1.38 nM. Further, the half-life in data set [5] amounted to 26.6 min.
The corresponding values for `Nc1n[nH]c(=O)c2c1c(-c1ccc3c(c1)CCN3C(=O)Cc1cccc(OC(F)(F)F)c1)nn2Cc1ccccc1` are 149 nM, 108 nM, 117 nM, 14.3 nM and 28.2 min.
Consider `Nc1n[nH]c(=O)c2c1c(-c1ccc3c(c1)CCN3C(=O)Cc1cccc(OC(F)(F)F)c1)nn2CC1CCC1`, for which the IC50 in data set [1] came to 68.4 nM. Moreover, the EC50 in data set [2] came out at 34 nM; in data set [3], 1.87 nM; in data set [4] it was 1.35 nM.
In the case of `CCn1nc(-c2ccc3c(c2)CCN3C(=O)Cc2ccc(Oc3ccccc3)cc2)c2c(N)n[nH]c(=O)c21`, the IC50 in data set [1] was determined as 941 nM. The EC50 in data set [2] worked out at 905 nM; in data set [3], 812 nM; in data set [4] it was 311 nM.
Consider `CC(C)Cn1nc(-c2ccc3c(c2)CCN3C(=O)Cc2cccc(OC(F)(F)F)c2)c2c(N)n[nH]c(=O)c21`, for which the IC50 in data set [1] came to 133 nM. Besides, the EC50 in data set [2] is 6.19 nM; in data set [3], 9.75 nM; in data set [4], 1.36 nM. The half-life in data set [5] came to 18.1 min.
With `CCn1nc(-c2ccc3c(c2)CCN3C(=O)CCc2cccc(OC(F)(F)F)c2)c2c(N)n[nH]c(=O)c21`, the IC50 in data set [1] was found to be 97.6 nM. In addition, the figures for the EC50 in data set [2], in data set [3] and in data set [4] were 4.62 nM, 4.82 nM and 20.3 nM, respectively.
In the same order, the values of `CCn1nc(-c2ccc3c(c2)CCN3Cc2cccc(OC(F)(F)F)c2)c2c(N)n[nH]c(=O)c21` are above 1000 nM, above 1000 nM, 990 nM and 451 nM.
As for `CC1(Cn2nc(-c3ccc4c(c3)CCN4C(=O)Cc3cccc(OC(F)(F)F)c3)c3c(N)n[nH]c(=O)c32)CC1`, the half-inhibitory concentration (IC50) in data set [1] came out at 98.7 nM. Besides, the EC50 turned out to be 37.5 nM in data set [2], 10.2 nM in data set [3] and 13.2 nM in data set [4]. In addition, the half-life in data set [5] is 26.4 min.
As to `Nc1n[nH]c(=O)c2c1c(-c1ccc3c(c1)CCN3C(=O)Cc1cccc(OC(F)(F)F)c1)nn2CCC1CCCC1`, the 50% inhibitory concentration (IC50) in data set [1] is above 1000 nM. The EC50 amounted to 134 nM in data set [2], 60.1 nM in data set [3] and 7.61 nM in data set [4].
With `CCc1nc(-c2ccc3c(c2)CCN3C(=O)Cc2cccc(OC(F)(F)F)c2)c2c(N)nccn12`, the half-inhibitory concentration (IC50) in data set [1] stood at 112 nM.
With `CCn1cc(-c2ccc3c(c2)CCN3C(=O)Cc2cccc(OC(F)(F)F)c2)c2c(=O)[nH]cnc21`, the IC50 in data set [1] was above 1000 nM.
Consider `CCn1nc(-c2ccc3c(c2)CCN3C(=O)CCc2cccc(C(F)(F)F)c2)c2c(N)n[nH]c(=O)c21`, for which the IC50 in data set [1] worked out at 111 nM. Further, the values for the EC50 in data set [2], in data set [3] and in data set [4] were 19.3 nM, 33 nM and 4.71 nM, respectively.
The corresponding values for `Nc1n[nH]c(=O)c2c1c(-c1ccc3c(c1)CCN3C(=O)Cc1cccc(OC(F)(F)F)c1)nn2CCN1CCCC1` are 512 nM, 63 nM, 173 nM and 54.4 nM.
As to `CCn1nc(-c2ccc3c(c2)CCN3C(=O)Cc2cccc(F)c2F)c2c(N)n[nH]c(=O)c21`, the IC50 in data set [1] is above 1000 nM. Also, the EC50 in data set [2] came to 579 nM; in data set [3], 946 nM; in data set [4], 123 nM.
The corresponding values for `CCn1nc(-c2ccc3c(c2)CCN3C(=O)Cc2cccc(F)c2)c2c(N)n[nH]c(=O)c21` are above 1000 nM, 597 nM, 722 nM and 45.6 nM.
For the compound `NC(=O)c1cc(-c2ccc3c(c2)CCN3C(=O)Cc2cccc(OC(F)(F)F)c2)ccc1N`, in data set [1], the IC50 was above 1000 nM.
For `CCn1nc(-c2ccc3c(c2)CCN3C(=O)CCc2ccccc2)c2c(N)n[nH]c(=O)c21`, the IC50 in data set [1] is 191 nM. Also, the EC50 in data set [2] came out at 149 nM; in data set [3] it was 232 nM; in data set [4], 42.1 nM.
In the case of `CCn1nc(-c2ccc3c(c2)CCN3C(C)=O)c2c(N)n[nH]c(=O)c21`, the IC50 in data set [1] was above 1000 nM.
Consider `CCn1nc(-c2ccc3c(c2)CCN3C(=O)Cc2cc(F)cc(C(F)(F)F)c2)c2c(N)n[nH]c(=O)c21`, for which the IC50 in data set [1] was 475 nM. Further, the figures for the EC50 in data set [2], in data set [3] and in data set [4] were 331 nM, 283 nM and 12.8 nM, respectively.
As for `CCn1nc(-c2ccc3c(c2)CCN3C(=O)CC2CCCCC2)c2c(N)n[nH]c(=O)c21`, the IC50 in data set [1] is above 1000 nM. Further, the EC50 was found to be 891 nM in data set [2], 879 nM in data set [3] and 64.5 nM in data set [4].
In the same order, the values of `CCn1nc(-c2ccc3c(c2)CCN3C(=O)c2cccc(OC(F)(F)F)c2)c2c(N)n[nH]c(=O)c21` are above 1000 nM, above 1000 nM, above 1000 nM and above 1000 nM.
For `CCn1cc(-c2ccc3c(c2)CCN3C(=O)Cc2cccc(OC(F)(F)F)c2)c2ncnc(N)c21`, the IC50 in data set [1] was above 1000 nM.
For `Nc1n[nH]c(=O)c2c1c(-c1ccc3c(c1)CCN3C(=O)Cc1cccc(OC(F)(F)F)c1)nn2Cc1ccc(F)cc1`, the IC50 in data set [1] is 290 nM. Further, the EC50 in data set [2] was 257 nM; in data set [3] it was 112 nM; in data set [4], 30.2 nM.
Take `NC(=O)c1cncc(-c2ccc3c(c2)CCN3C(=O)Cc2cccc(OC(F)(F)F)c2)c1`: in data set [1], the IC50 is 157 nM.
For `Nc1n[nH]c(=O)c2c1c(-c1ccc3c(c1)CCN3C(=O)Cc1cccc(OC(F)(F)F)c1)nn2CCC1CCCCC1`, the IC50 in data set [1] is above 1000 nM. For the same compound, the values for the concentration giving a half-maximal response (EC50) in data set [2], in data set [3] and in data set [4] were 246 nM, 103 nM and 16.2 nM, respectively.
Consider `CCn1nc(-c2ccc3c(c2)CCN3C(=O)Cc2ccc(OC(F)(F)F)cc2)c2c(N)n[nH]c(=O)c21`, for which the IC50 in data set [1] came to 177 nM. For the same compound, the results for the EC50 in data set [2], in data set [3] and in data set [4] were above 1000 nM, 638 nM and 726 nM, respectively.
For `Cn1nc(-c2ccc3c(c2)CCN3C(=O)Cc2cccc(OC(F)(F)F)c2)c2c(N)n[nH]c(=O)c21`, the IC50 in data set [1] was 140 nM. Moreover, the 50% effective concentration (EC50) in data set [2] was determined as 21.4 nM; in data set [3] it was 37.1 nM; in data set [4], 3.4 nM.
For `NC(=O)c1cccc(-c2ccc3c(c2)CCN3C(=O)Cc2cccc(OC(F)(F)F)c2)c1`, in data set [1], the IC50 turned out to be 102 nM.
With `CCn1nc(-c2ccc3c(c2)CCN3C(=O)Cc2ccc3c(c2)OCO3)c2c(N)n[nH]c(=O)c21`, the IC50 in data set [1] stood at 915 nM. The EC50 in data set [2] was 562 nM; in data set [3], 703 nM; in data set [4], 114 nM.
Consider `CCNc1ncnc(N)c1-c1ccc2c(c1)CCN2C(=O)Cc1cccc(OC(F)(F)F)c1`, for which, in data set [1], the IC50 is above 1000 nM.
Regarding `Nc1nc2cccc(-c3ccc4c(c3)CCN4C(=O)Cc3cccc(OC(F)(F)F)c3)n2n1`, in data set [1], the IC50 is above 1000 nM.
Turning to `CCn1nc(-c2ccc3c(c2)CCN3C(=O)C2(c3ccccc3)CC2)c2c(N)n[nH]c(=O)c21`, in data set [1], the IC50 is above 1000 nM. In addition, the EC50 in data set [2], in data set [3] and in data set [4] was above 1000 nM each time.
Regarding `CCn1nc(-c2ccc3c(c2)CCN3C(=O)[C@H](C)c2ccccc2)c2c(N)n[nH]c(=O)c21`, the IC50 in data set [1] is above 1000 nM. The EC50 in data set [2], in data set [3] and in data set [4] was above 1000 nM in each case.
With `CC(C)CCn1nc(-c2ccc3c(c2)CCN3C(=O)Cc2cccc(OC(F)(F)F)c2)c2c(N)n[nH]c(=O)c21`, the IC50 in data set [1] came out at 114 nM. Besides, the EC50 in data set [2] is 8.24 nM; in data set [3], 18.5 nM; in data set [4] it was 6.36 nM.
Turning to `CCn1nc(-c2ccc3c(c2)CCN3C(=O)Cc2cccc(OC)c2)c2c(N)n[nH]c(=O)c21`, in data set [1], the concentration for half-maximal inhibition (IC50) was above 1000 nM.
